Earlier results in patent publication US7838081B2, “Liquor that avoids the apparition of stains produced by fungi in lignocellulosic materials such as wood” (priority 2005, dated 2010).

| Compound | LD50 acute oral rat (rat) [mg/kg] | LD50 acute termal rabbit (rabbit) [mg/kg] | Results against stains of the wood (in words) (stains of the wood) |
| --- | --- | --- | --- |
| Oc1c(Br)cc(Br)cc1Br [2,4,6 Tribromophenol] | >5.000 | >8.000 | good results |
| [Cu+2].[O-]c1cccc2cccnc12.[O-]c1cccc2cccnc12 [Copper 8 oxiquinolinate (PQ-8), Copper 8 oxiquinolinate] | 3.900 to 4.700 | >2.000 | – |
| Oc1c(Cl)c(Cl)c(Cl)c(Cl)c1Cl [Pentachlorophenol] | – | – | good results |
